From patent publication USRE34165E, “Potent thymopentin analogs” (Ortho Pharmaceutical Corporation, priority 1990, dated 1993)
Read-outs that look alike come from different tables or passages of the source. Non-standard residues stand in square brackets, D forms with d. Residues, ends and D or L forms follow the SMILES beside them. No end group written: not given here. Aib = CC(C)(N)C(=O)O

How the values were obtained:
[1] = tested on: isolated thymopoietin cell surface receptor protein from CEM cells; settings: for Displacement of 125I-TP (in words): comparison peptides
[2] = tested on: cell membrane receptor of the intact CEM cell; assay: Cyclic-GMP assay: induction of cyclic-GMP production in intact CEM cells; type: cell-based, human; settings: for Concentration of c-GMP Produced: 4-5 min at 37° C.; for Result on the cyclic-GMP assay (in words): in comparison with thymopentin
Excerpt: This biological activity is evidenced by an assay measuring induction of cyclic-GMP production in a human T-cell line in comparison with thymopoietin. The induction of c-GMP production by a test peptide in this assay indicates the ability of the test peptide to bind to the thymopoietin receptor site on the cell and induce thymopoietin-like biological activity. […] Because of the expense of preparing peptides and the rapid degradation of peptides often observed in living systems, peptides such as those herein which have increased potency are greatly prized.
This assay measures the ability of the test peptide to bind to the cell membrane receptor of the intact CEM cell and selectively stimulate production of cyclic-GMP, as does thymopoietin itself.
The CEM cell line was obtained from the American Type Culture Collection and was cultured in RPMI-1640 medium supplemented with 10% heat-inactivated fetal bovine serum, 10% heat-inactivated horse serum, 2 mM L-glutamine, and 50 µg/ml gentamycin at 37° C. in a humid atmosphere containing 5 percent CO2, to a final density of 3-4×10^6 cells/ml. At this concentration, the cells were in the early stationary phase of the growth curve and were judged greater than 90% viable by trypan blue exclusion. The cells were grown for four days and harvested. After harvesting, the cells were washed three times in PBS and were resuspended in RPMI-1640 medium at a concentration of 3.12×10^7 cells/ml. After the cells had been allowed to equilibrate at 37° C. for 30 min, various concentrations of the test peptides were added in a volume of 25 μl of medium to 1 ml of cells, the initial concentration of test compound added being selected to yield the desired final concentration of test peptide in the medium. The test peptide was mixed instantly with the cell suspension. The incubation was allowed to proceed in a shaking water bath at 37° C. for 4-5 min and was then terminated by addition of ice-cold trichloroacetic acid (10%; 1 ml).
The cells in TCA were then homogenized and sonicated to release cyclic nucleotide. The resulting suspension was centrifuged at 3000 g for 20 min at 4° C. and the resulting precipitate was dissolved in 0.1N NaOH and sonicated for a further 30 minutes, after which the protein content was determined by the method of Cadman, et al., Anal. Biochem., 96, 21-23 (1979). The TCA was removed from the supernatant fraction by extracting four times with 5 ml of water-saturated diethyl ether. After the final extraction, the remaining traces of ether were removed from the supernatant fraction by heating it for 10 min in a 50° C. water bath. After lyophilization of the extracted supernatant fraction, it was reconstituted in 50 mM acetate buffer, ph 6.2, for radioimmunoassay of cyclic nucleotide using the assay kit NEX-133, New England Nuclear, Boston, Mass. 02113.
A conventional competition radioimmunoassay against radio labelled cyclic GMP was conducted to determine the amount of cyclic GMP induced by each concentration of test peptide. Results are shown in FIG. 1 and in the following table, in which representative subject peptides have been assayed in comparison with thymopentin (designated "TP-5") and a "nonsense" peptide H-ASP-ARG-TYR-LYS-VAL-OH.

[3] = at equivalent concentrations, with thymopoietin 37-45 nonapeptide, 12 h incubation
[4] = Concentration of Peptide 10^0 μg/ml
[5] = Concentration of Peptide 10^1 μg/ml
[6] = Concentration of Peptide 10^3 μg/ml
[7] = Concentration of Peptide 10^4 μg/ml

Compound: CC(C)[C@H](NC(=O)[C@H](CC(=O)O)NC(=O)[C@H](CCCCN)NC(=O)[C@@H](N)CCCNC(=N)N)C(=O)N[C@@H](Cc1c[nH]cn1)C(=O)O [H--ARG--LYS--ASP--VAL--HIS--OH, Arginyl-Lysyl-Aspartyl-Valyl-Histidine] (H-RKDVH-OH)
- Displacement of 125I-TP relative to that caused by thymopoietin self-displacement [1, 3]: at least 50%
- Concentration of c-GMP Produced [2, 4]: 0 picomoles/ml
- Concentration of c-GMP Produced [2, 5]: 9 picomoles/ml

Compound: CC(C)[C@H](NC(=O)[C@H](CC(=O)O)NC(=O)[C@H](CCCCN)NC(=O)[C@@H](N)CCCNC(=N)N)C(=O)N[C@@H](Cc1ccccc1)C(=O)O [H--ARG--LYS--ASP--VAL--PHE--OH, Arginyl-Lysyl-Aspartyl-Valyl-Phenylalanine] (H-RKDVF-OH)
- Displacement of 125I-TP relative to that caused by thymopoietin self-displacement [1, 3]: at least 50%
- Concentration of c-GMP Produced [2, 4]: 6 picomoles/ml
- Concentration of c-GMP Produced [2, 5]: 9 picomoles/ml

Compound: CC(C)[C@H](NC(=O)[C@H](CC(=O)O)NC(=O)[C@@H]1CCCN1C(=O)[C@@H](N)CCCNC(=N)N)C(=O)N[C@@H](Cc1ccccc1)C(=O)O [H--ARG--PRO--ASP--VAL--PHE--OH, Arginyl-Prolyl-Aspartyl-Valyl-Phenylalanine] (H-RPDVF-OH)
- Displacement of 125I-TP relative to that caused by thymopoietin self-displacement [1, 3]: at least 50%
- Concentration of c-GMP Produced [2, 4]: 0 picomoles/ml
- Concentration of c-GMP Produced [2, 5]: 12 picomoles/ml

Compound: CC(C)[C@H](NC(=O)[C@H](CCCCN)NC(=O)[C@H](Cc1ccc(O)cc1)NC(=O)[C@H](CCCNC(=N)N)NC(=O)[C@@H](N)CC(=O)O)C(=O)O [H--ASP--ARG--TYR--LYS--VAL--OH, H-ASP-ARG-TYR-LYS-VAL-OH, reference compound] (H-DRYKV-OH)
- Concentration of c-GMP Produced [2, 6]: 0 picomoles/ml
- Concentration of c-GMP Produced [2, 7]: 0 picomoles/ml
- Concentration of c-GMP Produced ([2]; Concentration of Peptide 10^5 μg/ml): 0 picomoles/ml

Compound: CC(C)[C@H](NC(=O)[C@H](CC(=O)O)NC(=O)[C@H](CCCCN)NC(=O)[C@@H](N)CCCNC(=N)N)C(=O)N[C@@H](Cc1c[nH]c2ccccc12)C(N)=O [H-ARG-LYS-ASP-VAL-TRP-NH2, Arginyl-Lysyl-Aspartyl-Valyl-Tryptophan amide] (H-RKDVW-NH2)
- Displacement of 125I-TP relative to that caused by thymopoietin self-displacement [1, 3]: at least 50%
- Result on the cyclic-GMP assay (in words) [2]: superior results

Compound: CC(C)[C@H](NC(=O)[C@H](CC(=O)O)NC(=O)[C@H](CCCCN)NC(=O)[C@@H](N)CCCNC(=N)N)C(=O)N[C@@H](Cc1c[nH]c2ccccc12)C(=O)O [H-ARG-LYS-ASP-VAL-TRP-OH, Arginyl-Lysyl-Aspartyl-Valyl-Tryptophan] (H-RKDVW-OH)
- Displacement of 125I-TP relative to that caused by thymopoietin self-displacement [1, 3]: at least 50%
- Result on the cyclic-GMP assay (in words) [2]: superior results

Compound: CC(=O)N[C@@H](CCCNC(=N)N)C(=O)NC(C)(C)C(=O)N[C@@H](CC(=O)O)C(=O)N[C@H](C(=O)N[C@@H](Cc1ccccc1)C(N)=O)C(C)C [N-α-acetyl-ARG-AIB-ASP-VAL-PHE-NH2, Acetyl-Arginyl-α-Aminoisobutyryl-Aspartyl-Valyl-Phenylalaminamide] (Ac-R[Aib]DVF-NH2)
- Result on the cyclic-GMP assay (in words) [2]: superior results

Compound: CC(=O)N[C@@H](CCCNC(=N)N)C(=O)N1CCC[C@H]1C(=O)N[C@@H](CC(=O)O)C(=O)N[C@H](C(=O)N[C@@H](Cc1ccccc1)C(N)=O)C(C)C [N-α-acetyl-ARG-PRO-ASP-VAL-PHE-NH2, Acetyl-Arginyl-Prolyl-Aspartyl-Valyl-Phenylalanineamide] (Ac-RPDVF-NH2)
- Result on the cyclic-GMP assay (in words) [2]: superior results

Compound: CC(C)[C@H](NC(=O)[C@H](CC(=O)O)NC(=O)[C@H](CCCCN)NC(=O)[C@@H](N)CCCN=C(N)N)C(=O)N[C@@H](Cc1ccc(O)cc1)C(=O)O [TP-5, thymopentin] (H-RKDVY-OH)
- Concentration of c-GMP Produced [2, 4]: 0 picomoles/ml
- Concentration of c-GMP Produced [2, 5]: 4.5 picomoles/ml
- Concentration of c-GMP Produced ([2]; Concentration of Peptide 10^2 μg/ml): 9 picomoles/ml
- Concentration of c-GMP Produced [2, 6]: 12 picomoles/ml
- Concentration of c-GMP Produced [2, 7]: 14 picomoles/ml

Compound: C[C@H](N)C(=O)NCC(=O)N[C@H]1CSSC[C@@H](C(=O)O)NC(=O)[C@H](CO)NC(=O)[C@H]([C@@H](C)O)NC(=O)[C@H](Cc2ccccc2)NC(=O)[C@H]([C@@H](C)O)NC(=O)[C@H](CCCCN)NC(=O)[C@H](Cc2c[nH]c3ccccc23)NC(=O)[C@H](Cc2ccccc2)NC(=O)[C@H](Cc2ccccc2)NC(=O)[C@H](CC(N)=O)NC(=O)[C@H](CCCCN)NC1=O [somatostatin]
- Displacement of 125I-TP (in words) [1]: no detectable displacement

Compound: CC(=O)N[C@@H](CCCNC(=N)N)C(=O)N1CCC[C@H]1C(=O)N[C@@H](CC(=O)O)C(=O)N[C@H](C(=O)N[C@@H](Cc1ccccc1)C(=O)O)C(C)C [α-acetyl-ARG--PRO--ASP--VAL--PHE--OH, N^α -Acetyl-Arginyl-Prolyl-Aspartyl-Valyl-Phenylaline] (Ac-RPDVF-OH)
- Displacement of 125I-TP relative to that caused by thymopoietin self-displacement [1]: at least 50%
- Concentration of c-GMP Produced [2, 4]: 7 picomoles/ml
- Concentration of c-GMP Produced [2, 5]: 15 picomoles/ml

Compound: N^α -Acetyl-Arginyl-3,4-dehydro-Prolyl-Aspartyl-Valyl-Tyrosineamide
- Result on the cyclic-GMP assay (in words) [2]: superior results

Compound: adrenocorticotropic hormone (SYSMEHFRWGKPVGKKRRPVKVYPNGAEDESAEAFPLEF; Corticotropin; UniProt P01189 138-176, looked up) [ACTH]
- Displacement of 125I-TP (in words) [1]: no detectable displacement

Compound: corticotropin-releasing factor (SEEPPISLDLTFHLLREVLEMARAEQLAQQAHSNRKLMEII; ends and bridges not checked; UniProt P06850 154-194, looked up) [CRF]
- Displacement of 125I-TP (in words) [1]: no detectable displacement

Compound: facteur thymique serique [FTS]
- Displacement of 125I-TP (in words) [1]: no detectable displacement

Compound: growth hormone
- Displacement of 125I-TP (in words) [1]: no detectable displacement

Compound: ubiquitin
- Displacement of 125I-TP (in words) [1]: no detectable displacement

Compound: β-endorphin (YGGFMTSEKSQTPLVTLFKNAIIKNAYKKGE; Beta-endorphin; UniProt P01189 237-267, looked up)
- Displacement of 125I-TP (in words) [1]: no detectable displacement
